Reference: patent publication US11560358B2, “Resveratrol-piperazine co-crystals” (LETAVIS AB, priority 2018, dated 2023)
Values after ≈ are worked out from the molar mass of the structure shown.

Assay: physchem
Procedure: In situ dissolution experiments were performed with a μDISS Profiler apparatus (pION Inc., MA, USA). The system consists of an integrated diode array spectrophotometer connected to a fiber optic UV probe located directly in the reaction vessel (20 ml scintillation vial) and measures the concentration as a function of time, without filtering the solution. Measurement of the dissolution kinetics was carried out at 220 nm and 270 nm, which are optimal for the UV detection of resveratrol and […], respectively. The concentrations of the compounds in the dissolution media (water, buffer pH=4, pH=6) were calculated by means of a standard curve.
The calibration curve was obtained in a mixture of ethanol and water at 8/2 (vol/vol). Stock solutions of resveratrol and resveratrol-piperazine co-crystal, Form 1, respectively, were prepared at 10 mg/ml. The calibration was performed in a 20 ml volume.
The dissolution was performed in 25 mM phosphate buffer (Na2HPO4/KH2PO4) at pH 6, at a concentration of 1 mg/ml resveratrol and resveratrol-piperazine co-crystal, Form 1, respectively. An amount of 20 mg of each compound was dispensed in 20 ml volume of buffer. The process was monitored for 90 minutes.
The calibration was performed in a mixture of ethanol and sodium acetate buffer pH 4.0 at 8/2 (vol/vol) and final concentration of 25 mM sodium acetate. Stock solutions of resveratrol and resveratrol-piperazine co-crystal, Form 1, respectively, were prepared at 10 mg/ml in the solvent mixture. The calibration was performed in 20 ml volume.
The dissolution was performed in 25 mM sodium acetate buffer at pH 4.0, at a concentration of 1 mg/ml resveratrol and resveratrol-piperazine co-crystal, Form 1 (RP1), respectively. An amount of 20 mg compound was dispensed in 20 ml volume of buffer. The process was monitored for 90 minutes.

| Compound | aqueous solubility | time maintained in solution, pH 4 buffer versus pH 6 buffer (FIG. 14 and FIG. 13) | solubility compared to that of resveratrol (pH 4) | solubility at 90 min (aqueous buffer, thermodynamic from solid) [µg/mL] |
| --- | --- | --- | --- | --- |
| C1CNCCN1.Oc1ccc(C=Cc2cc(O)cc(O)c2)cc1 [resveratrol-piperazine co-crystal, Form 1] | 65-100 micrograms/ml | longer than in the case of the pH 6 buffer | three times higher |  |
| Oc1ccc(C=Cc2cc(O)cc(O)c2)cc1 [resveratrol] |  |  |  | 30 (≈ 131 µM) |
